Several values for one entry are separate records, joined by “and”; a condition that tells them apart may be missing. Equal values may be shown once. Read-outs that look alike come from different tables or passages of the source.
Legend:
[1] = system: human immunodeficiency virus-1 (HIV-1); assay: anti-HIV MAGI assay; assay type: cell-based; conditions: Human immunodeficiency virus 1, MAGI, anti-HIV, MAGI assay; read-out: EC50
From the text: We examined the inhibitory activities of DDPs against various species of bacteria (both gram-negative and gram-positive bacteria), fungi and viruses. […] In contrast, preliminary screening of the DDPs for anti-viral agents with hepatitis B virus (HBV), measles virus (MV), Epstein-Barr virus (EBV), herpes simplex virus (HSV) and human immunodeficiency virus-1 (HIV-1) indicated their selective inhibition of HIV.

[2] = system: MAGI cells; assay: cytotoxicity in the anti-HIV assay (CC50); assay type: cell-based
[3] = cytotoxicity in Drosophila l(2)mbn cells; assay type: cell-based; conditions: Drosophila, l(2)mbn cells (larval blood cell-derived)
Method: (§1) We screened the DDPs on the Drosophila assay system for cytotoxicity, inhibitory activity of innate immune signalling and insecticidal activity. The cytotoxicity of the DDPs was evaluated using two cell lines, embryonic macrophage-derived DL1 cells[58]–[60] and larval blood cell-derived l(2)mbn cells, and their IC50 values are listed in Supplementary Table 23.

[4] = system: l(2)mbn cells; assay: cytotoxicity in Drosophila l(2)mbn cells; assay type: cell-based; conditions: for Luminescence Raw1: replicate 1; for Luminescence Raw2: replicate 2; for IC50: Drosophila melanogaster, cytotoxicity
Method: as §1

[5] = system: MCF-7 cells; assay: cell cytotoxic effects against MCF-7 cells (72 h), A490; assay type: cell-based, human
[6] = cytotoxicity in Drosophila DL1 cells; assay type: cell-based; conditions: Drosophila, DL1 cells (embryonic macrophage-derived), DL1 cells
Method: as §1

[7] = system: DL1 cells; assay: cytotoxicity in Drosophila DL1 cells; assay type: cell-based; conditions: DL1 cells; for IC50: Drosophila melanogaster, cytotoxicity
Method: as §1

[8] = replicate 1, relative to DMSO 1%, read-out: % viability, viability 1
[9] = replicate 2, relative to DMSO 1%, read-out: % viability, viability 2
[10] = average of two replicates, read-out: IC50 Average
[11] = replicate 1, read-out: IC50 (1)
[12] = replicate 2, read-out: IC50 (2)

C=C1CCC2C3(C)CC(C=C(C)C)OC3CCC2(C)C1Cc1c(OC)oc(C)c(C)c1=O (stereo not drawn) [Compound 23]
EC50 [1]: < 200 nM
Cytotoxicity Avg. ([2]; average of numeric determinations): 5.617 µM
Cytotoxicity ([2]; single determinations): 5.032 µM and 7.537 µM and 4.281 µM
viability at 0.04 µM [3, 8]: 122%
viability at 0.04 µM [3, 9]: 135%
viability at 0.2 µM [3, 8]: 126%
viability at 0.2 µM [3, 9]: 141%
viability at 1 µM [3, 8]: 44.7%
viability at 1 µM [3, 9]: 72.6%
viability at 4 µM [3, 8]: 8.9%
viability at 4 µM [3, 9]: 9.14%
viability at 10 µM [3, 8]: 7.01%
viability at 10 µM [3, 9]: 6.89%
viability at 20 µM [3, 8]: 6.91%
viability at 20 µM [3, 9]: 6.4%
Luminescence Raw1 ([4]; 0.04 µM): 3121216
Luminescence Raw2 ([4]; 0.04 µM): 3467512
Luminescence Raw1 ([4]; 0.2 µM): 3228350
Luminescence Raw2 ([4]; 0.2 µM): 3607479
Luminescence Raw1 ([4]; 1 µM): 1147296
Luminescence Raw2 ([4]; 1 µM): 1863873
Luminescence Raw1 ([4]; 4 µM): 228513
Luminescence Raw2 ([4]; 4 µM): 234642
Luminescence Raw1 ([4]; 10 µM): 179837
Luminescence Raw2 ([4]; 10 µM): 176952
Luminescence Raw1 ([4]; 20 µM): 177313
Luminescence Raw2 ([4]; 20 µM): 164332
IC50 [4, 10]: 1580 nM
IC50 ([4]; average±SEM, read-out: IC50): 1580 ± 350 nM
IC50 [4, 11]: 1230 nM
IC50 [4, 12]: 1920 nM
cytotoxicity against the bulk of MCF-7 cells [5]: dose-dependent cytotoxicity
viability at 0.1 µM ([5]; Homo sapiens, MCF7, 72 h, MCF-7, 72 h, 0.1 µM (DMSO 0.002%), read-out: A490 (control =1) ave): 62.5%
viability at 1 µM ([5]; Homo sapiens, MCF7, 72 h, MCF-7, 72 h, 1 µM (DMSO 0.02%), read-out: A490 (control =1) ave): 21.6%
viability at 10 µM ([5]; Homo sapiens, MCF7, 72 h, MCF-7, 72 h, 10 µM (DMSO 0.2%), read-out: A490 (control =1) ave): 14.8%
A490 ave ([5]; MCF-7, 72 h, 0.1 µM (DMSO 0.002%), control 1.064): 0.664
A490 ave ([5]; MCF-7, 72 h, 1 µM (DMSO 0.02%), control 1.104): 0.239
A490 ave ([5]; MCF-7, 72 h, 10 µM (DMSO 0.2%), control 1.049): 0.155
viability at 0.04 µM [6, 8]: 80.6%
viability at 0.04 µM [6, 9]: 110%
viability at 0.2 µM [6, 8]: 21.3%
viability at 0.2 µM [6, 9]: 27.7%
viability at 1 µM [6, 8]: 7.72%
viability at 1 µM [6, 9]: 9.91%
viability at 4 µM [6, 8]: 8.03%
viability at 4 µM [6, 9]: 7.75%
viability at 10 µM [6, 8]: 4.94%
viability at 10 µM [6, 9]: 5.43%
viability at 20 µM [6, 8]: 8.44%
viability at 20 µM [6, 9]: 8.21%
Luminescence Raw1 ([7]; 0.04 µM, replicate 1): 1660895
Luminescence Raw2 ([7]; 0.04 µM, replicate 2): 2275454
Luminescence Raw1 ([7]; 0.2 µM, replicate 1): 438070
Luminescence Raw2 ([7]; 0.2 µM, replicate 2): 571485
Luminescence Raw1 ([7]; 1 µM, replicate 1): 158989
Luminescence Raw2 ([7]; 1 µM, replicate 2): 204060
Luminescence Raw1 ([7]; 4 µM, replicate 1): 165479
Luminescence Raw2 ([7]; 4 µM, replicate 2): 159710
Luminescence Raw1 ([7]; 10 µM, replicate 1): 101660
Luminescence Raw2 ([7]; 10 µM, replicate 2): 111756
Luminescence Raw1 ([7]; 20 µM, replicate 1): 173772
Luminescence Raw2 ([7]; 20 µM, replicate 2): 169085
IC50 [7, 10]: 130 nM
IC50 ([7]; average±SEM, read-out: IC50): 130 ± 40 nM
IC50 [7, 11]: 94 nM
IC50 [7, 12]: 167 nM
